Experimental data from patent EP2961847B1, “NITRITE-REDUCTASE (NIRB) AS POTENTIAL ANTI-TUBERCULAR TARGET AND A METHOD TO DETECT THE SEVERITY OF TUBERCULOSIS DISEASE” (priority 2013, dated 2014).
Where two headings read alike, the source gives them in different places.

What was measured:
[1] = system: M. tuberculosis in THP-1 macrophage; assay type: cell-based, Mycobacterium tuberculosis
[2] = system: THP-1 macrophages; assay: Cytotoxic effect on THP-1 macrophages, fluorescence microscopy after DAPI staining; assay type: cell-based, Human; settings: 100 µM; images after 10th day of inhibitor treatment; compared with untreated control
Procedure: THP-1 macrophage cells were grown on cover slip in 8 well microplates and washed twice with chilled methanol followed by staining with 4', 6-diamidino-2-phenylindole (DAPI) at final concentration of 300 nM. Macrophage cells were kept for 15 min at room temperature under dark condition. After incubation, cells were washed three times with distilled water and analyzed under the fluorescence microscope (Leitz Wetzlar model, Germany) at 350 nm excitation and 450 nm emission wavelengths (400 X) using 'A'filter.
To investigate the host THP-1 macrophage cells condition due to its exposure to p-HMB inhibitor before considering its effective and specific inhibition of bacilli in macrophage infection models, fluorescence microscopic picture of THP-1 cells treated with p-HMB (100 µM) was compared with the untreated control after staining with DAPI(4',6-diamidino-2-phenylindole). Fluorescence images were taken after 10th day of inhibitor treatment.

[3] = system: Mycobacterium tuberculosis

SMILES: [N-]=[N+]=[N-] [Azide]
- decrease in intracellular viable cell count (log difference compared to control) [1]: ~1.5 log

SMILES: O=C(O)c1cc[c]([Hg][OH])cc1 [p-HMB, para-hydroxy mercuric benzoate]
- decrease in intracellular viable cell count (log difference compared to control) ([1]; […], cell counts on 10th day PI, control without inhibitor): ~2 log
- reduction of bacilli count ([1]; summary statement: in-vitro and ex-vivo conditions): ~2 log cfu
- cytotoxic effect on macrophage (integrity of nuclear structure) [2]: without exhibiting any cytotoxic effects on macrophage
- cell count reduced (log difference) [3]: ~2.5 log
- inhibition of bacilli grown under ammonia [3]: no inhibition was observed

SMILES: CS(=N)(=O)CC[C@H](N)C(=O)O (stereo partly drawn) [L-MSO, L-methionine sulfoximine]
- decrease in intracellular viable cell count (log difference compared to control) [1]: ~2.5 log
